How the values were obtained:
Tyk2-pSTAT4 = experiment: IL-12 induced pSTAT4 in human PBMC; assay type: cell-based; conditions: Homo sapiens, PBMC, read-out: Tyk2-pSTAT4 EC50
How it was run: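 PBMC (200,000 cells/well) in serum-containing medium were preincubated with compound for 1 hr at 37 C, final DMSO 0.1%. Stimulation with 1.7 ng/mL IL-12 (final) for 30 minutes. pSTAT4 and total STAT4 were measured in lysates by MSD.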

TYK2 = TYK2 (Homo sapiens (Human), UniProt P29597); experiment: Tyk2 activity inhibition assay (radioactive kinase assay / Caliper assay); assay type: biochemical
TYK2, sequence (P29597 whole entry): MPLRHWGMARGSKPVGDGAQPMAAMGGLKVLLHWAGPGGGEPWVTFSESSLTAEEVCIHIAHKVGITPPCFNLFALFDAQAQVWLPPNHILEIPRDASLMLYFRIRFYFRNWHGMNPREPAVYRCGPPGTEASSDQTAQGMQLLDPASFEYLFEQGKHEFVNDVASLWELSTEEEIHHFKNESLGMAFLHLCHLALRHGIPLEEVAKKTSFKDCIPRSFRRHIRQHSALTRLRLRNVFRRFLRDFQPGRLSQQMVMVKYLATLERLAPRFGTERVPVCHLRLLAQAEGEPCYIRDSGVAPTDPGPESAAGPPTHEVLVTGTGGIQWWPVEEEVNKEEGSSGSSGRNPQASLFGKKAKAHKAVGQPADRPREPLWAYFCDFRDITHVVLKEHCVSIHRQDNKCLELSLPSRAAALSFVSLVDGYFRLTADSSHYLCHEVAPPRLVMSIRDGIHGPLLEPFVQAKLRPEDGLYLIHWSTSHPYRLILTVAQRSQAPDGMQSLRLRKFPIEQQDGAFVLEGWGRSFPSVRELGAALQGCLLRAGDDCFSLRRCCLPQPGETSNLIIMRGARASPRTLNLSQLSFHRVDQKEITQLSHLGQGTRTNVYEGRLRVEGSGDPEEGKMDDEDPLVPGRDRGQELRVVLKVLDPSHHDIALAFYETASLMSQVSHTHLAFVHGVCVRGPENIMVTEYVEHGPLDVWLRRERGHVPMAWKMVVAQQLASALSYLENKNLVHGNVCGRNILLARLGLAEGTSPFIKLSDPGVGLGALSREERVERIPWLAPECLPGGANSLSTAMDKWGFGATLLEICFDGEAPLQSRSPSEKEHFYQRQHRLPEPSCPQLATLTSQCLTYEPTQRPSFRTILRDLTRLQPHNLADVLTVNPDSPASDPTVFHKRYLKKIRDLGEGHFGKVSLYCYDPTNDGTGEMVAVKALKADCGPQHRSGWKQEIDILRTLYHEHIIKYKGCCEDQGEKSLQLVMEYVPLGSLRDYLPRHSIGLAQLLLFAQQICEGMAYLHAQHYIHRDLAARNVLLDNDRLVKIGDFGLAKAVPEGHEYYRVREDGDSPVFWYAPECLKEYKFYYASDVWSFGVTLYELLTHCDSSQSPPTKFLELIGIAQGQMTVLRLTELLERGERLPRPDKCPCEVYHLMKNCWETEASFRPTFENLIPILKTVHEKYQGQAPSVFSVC
How it was run: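 Two formats were used. Caliper off-chip mobility shift read phosphorylated peptide 30 (3 uM) after 25 min at 28° C with 9.75 nM TYK2 and ATP at 16 uM or 1 mM. Radioactive assay: 10 μM 33P-ATP, 20 μM peptide, 120 min room temp, P81 filter counting.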

JAK2-pSTAT5 = experiment: GM-CSF induced pSTAT5 in human PBMC; assay type: cell-based; conditions: Homo sapiens, PBMC, read-out: JAK2-pSTAT5 EC50
JAK2 = JAK2 (Homo sapiens (Human), UniProt O60674); experiment: JAK2 activity inhibition assay (radioactive kinase assay / Caliper assay); assay type: biochemical; conditions: read-out: JAK2 Ki
JAK2, sequence (O60674 whole entry): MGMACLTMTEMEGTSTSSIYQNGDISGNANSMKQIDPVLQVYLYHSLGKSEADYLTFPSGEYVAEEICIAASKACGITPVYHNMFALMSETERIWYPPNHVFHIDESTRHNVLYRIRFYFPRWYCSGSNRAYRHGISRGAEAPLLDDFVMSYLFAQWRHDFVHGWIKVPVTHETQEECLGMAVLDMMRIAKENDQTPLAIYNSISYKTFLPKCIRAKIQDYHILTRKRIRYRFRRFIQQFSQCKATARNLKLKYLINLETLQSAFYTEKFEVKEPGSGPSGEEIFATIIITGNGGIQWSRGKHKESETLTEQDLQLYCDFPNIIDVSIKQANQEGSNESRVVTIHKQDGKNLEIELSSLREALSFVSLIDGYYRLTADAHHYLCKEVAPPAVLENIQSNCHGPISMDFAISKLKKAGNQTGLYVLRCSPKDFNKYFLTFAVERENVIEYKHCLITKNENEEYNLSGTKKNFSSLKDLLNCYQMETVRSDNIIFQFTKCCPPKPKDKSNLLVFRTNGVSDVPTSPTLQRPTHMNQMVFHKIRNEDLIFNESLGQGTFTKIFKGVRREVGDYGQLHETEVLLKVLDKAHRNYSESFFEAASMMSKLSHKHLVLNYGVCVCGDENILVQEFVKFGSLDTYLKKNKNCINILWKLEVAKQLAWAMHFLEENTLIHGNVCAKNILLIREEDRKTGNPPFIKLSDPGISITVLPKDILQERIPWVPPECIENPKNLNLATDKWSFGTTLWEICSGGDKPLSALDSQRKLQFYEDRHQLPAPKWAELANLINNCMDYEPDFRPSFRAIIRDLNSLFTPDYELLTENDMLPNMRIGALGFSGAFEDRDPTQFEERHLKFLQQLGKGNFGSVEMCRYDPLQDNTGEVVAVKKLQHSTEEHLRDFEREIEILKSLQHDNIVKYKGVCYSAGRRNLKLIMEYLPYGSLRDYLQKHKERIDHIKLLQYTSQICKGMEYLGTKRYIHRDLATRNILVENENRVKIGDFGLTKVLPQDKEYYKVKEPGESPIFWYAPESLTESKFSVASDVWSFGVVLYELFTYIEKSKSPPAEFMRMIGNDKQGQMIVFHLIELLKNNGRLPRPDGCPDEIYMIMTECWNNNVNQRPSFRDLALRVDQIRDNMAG
How it was run: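 Reaction ran 25 min at 28° C after adding peptide/ATP mix (10 mM MgCl2) to compound and enzyme in HEPES pH 7.5 buffer with Brij-35, Triton and EGTA. EDTA stop, then microfluidic off-chip separation quantified phosphorylated peptide.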

IL-12/IL-18 induced IFNγ = experiment: Acute mouse model for IL-12/IL-18 induced IFNγ in serum; assay type: in vivo, C57BL/6 mice; conditions: in mice, efficacious dose of 30 mg/kg SC
Description: C57BL/6 mice mice are dosed PO or SC with test compound at various doses or vehicle (n=9 or 10 per group) and then, 30 minutes later, injected IP with 10 ng IL-12 and 1 μg IL-18. Three hours after IL-12/IL-18 injection, mice were bled and serum isolated. Concentration of cytokines in serum were determined using CBA analysis.

## CCNC(=O)Cc1ccc(Nc2nc(-c3c(F)cccc3F)nc3c2C(=O)NC3)cc1 [Compound I-80, 2-(4-((2-(2,6-difluorophenyl)-5-oxo-6,7-dihydro-5H-pyrrolo[3,4-d]pyrimidin-4-yl)amino)phenyl)-N-ethylacetamide]
Tyk2-pSTAT4
  EC50: < 2000 nM
TYK2
  Ki: < 10 nM
JAK2-pSTAT5
  EC50: > 20000 nM
JAK2
  Ki: 100 to 1000 nM
IL-12/IL-18 induced IFNγ
  IL-12/IL-18 induced IFNγ production in vivo: inhibited

From patent US10196390B2, “TYK2 inhibitors and uses thereof” (Nimbus Lakshmi, Inc., priority 2014, dated 2019)
